Measurements published in patent publication US5192760A, “3-carbalkoxyamino-5-(alpha-aminopropionyl)-5H-dibenz[b,f]azepines and method for their making” (priority 1989, dated 1993).
Read-outs that look alike come from different tables or passages of the source.

Assays:
Aconitine (rat) = test: animal or person; type: in vivo, female Wistar rats; conditions: Rattus norvegicus
Method: (§1) ED73 iv. and po. are the dose in mg/kg, body weight which inhibits aconitine in female Wistar rats after iv. or po. administration of the test substance up to the occurrence of isolated ventricular extrasystolae. The procedure is also described by K. Femmer et al., in Pharmazie, vol. 31, page 36 (1976). The test substances are administered 2 minutes before the aconitine if given iv., and 60 minutes before the aconitine if given orally. The data is analyzed by the Probit regression analysis with a confidence interval of p=0.05 (values in parentheses).
(§2) Q1 is the ratio of […]. to determine the absorption, and Q2 is the ratio of LD50 iv. /ED73 iv. to determine the therapeutic breadth.

in vivo [1] = type: in vivo, female Wistar rats; conditions: in vivo
Method: as §1, §2

in vivo [2] = test: in vivo; design: species or system male or female Wistar rats; conditions: Wistar rat, iv. in tail vein, p=0.05 confidence interval in parentheses
Text: LD50 iv. is the lethal dose in mg/kg body weight for 50% of the experimental animals of an orientating acute toxicity test on male or female Wistar rats of our own breed, iv. administration in the tail vein, 3-4 dosages, 10 animals per group. Data analyzed by the Probit regression analysis with a confidence interval of p=0.05 (values in parentheses).

[3] = ratio of ED73 po. to ED73 iv., rat aconitine, read-out: Q1 (ED73 po. /ED73 iv.), absorption ratio
[4] = ratio of LD50 iv. to ED73 iv., rat, read-out: Q2 (LD50 iv. /ED73 iv.), therapeutic breadth

In the case of `CCOC(=O)Nc1ccc2c(c1)N(C(=O)CN(C)C)c1ccccc1CC2` [Bonnecor, 3carbethoxyamino-5-dimethylaminoacetyl-10,11-dihydro-5H-dibenz[b,f,]azepine, reference compound], the ED73 (Aconitine (rat); iv, read-out: ED73 iv.) is reported as 0.28 mg/kg, the ED73 (Aconitine (rat); po, read-out: ED73 p.o.) is reported as 5.7 mg/kg and the selectivity ratio (in vivo [1]; [3]) is reported as 20. For the same molecule, the selectivity ratio (in vivo [1]; [4]) was 39.
Molecule `CCOC(=O)Nc1ccc2c(c1)N(C(=O)CCN1CCOCC1)c1ccccc1S2` [Moracizin, reference compound] has an ED73 (Aconitine (rat); iv, read-out: ED73 iv.) of 1.1 mg/kg, an ED73 (Aconitine (rat); po, read-out: ED73 p.o.) of 112 mg/kg and a selectivity ratio (in vivo [1]; [3]) of 102. The selectivity ratio (in vivo [1]; [4]) was 10.
Molecule `CCOC(=O)Nc1ccc2c(c1)N(C(=O)C(C)N(CC)CC)c1ccccc1CC2` (stereo not drawn) [Test No. 2] has an ED73 (Aconitine (rat); iv, read-out: ED73 iv.) of 1.3 mg/kg, an ED73 (Aconitine (rat); po, read-out: ED73 p.o.) of 11 mg/kg and a selectivity ratio (in vivo [1]; [3]) of 9. The selectivity ratio (in vivo [1]; [4]) was 9 and the LD50 (in vivo [2]) was 12 mg/kg.
In the case of `CCOC(=O)Nc1ccc2c(c1)N(C(=O)C(C)N(C)C)c1ccccc1CC2` (stereo not drawn) [Test No. 1], the ED73 (Aconitine (rat); iv, read-out: ED73 iv.) is reported as 2.4 mg/kg, the ED73 (Aconitine (rat); po, read-out: ED73 p.o.) is reported as 24 mg/kg and the selectivity ratio (in vivo [1]; [3]) is reported as 10. The selectivity ratio (in vivo [1]; [4]) was 8 and the LD50 (in vivo [2]) was 20 mg/kg.
For `CNC(C)C(=O)N1c2ccccc2CCc2ccc(NC(=O)OC(C)C)cc21` (stereo not drawn) [compound 6], the ED73 (Aconitine (rat); iv, read-out: ED73 iv.) was 0.55 mg/kg, the ED73 (Aconitine (rat); po, read-out: ED73 p.o.) was 12 mg/kg and the selectivity ratio (in vivo [1]; [3]) was 22. The selectivity ratio (in vivo [1]; [4]) was 38 and the LD50 (in vivo [2]) was 21 mg/kg.
In the case of `CCNC(C)C(=O)N1c2ccccc2CCc2ccc(NC(=O)OCC)cc21.Cl` (stereo not drawn) [Test No. 5, 3-carbethoxyamino-5-(α-ethylaminopropionyl)-10,11-dihydro-5H-dibenz[b,f]azepine hydrochloride], the ED73 (Aconitine (rat); iv, read-out: ED73 iv.) is reported as 0.16 mg/kg, the ED73 (Aconitine (rat); po, read-out: ED73 p.o.) is reported as 7 mg/kg and the selectivity ratio (in vivo [1]; [3]) is reported as 44. For the same molecule, the selectivity ratio (in vivo [1]; [4]) was 39 and the LD50 (in vivo [2]) was 9.3 mg/kg.
Work on `CCOC(=O)Nc1ccc2c(c1)N(C(=O)C(C)NC)c1ccccc1CC2` (stereo not drawn) [Test No. 4, 3-Carbethoxyamino-5-(α-methylaminopropionyl)-10,11-dihydro-5H-dibenz[b,f]-azepine] yielded an ED73 (Aconitine (rat); iv, read-out: ED73 iv.) of 0.12 mg/kg, an ED73 (Aconitine (rat); po, read-out: ED73 p.o.) of 19 mg/kg and a selectivity ratio (in vivo [1]; [3]) of 158. For the same molecule, the selectivity ratio (in vivo [1]; [4]) was 100 and the LD50 (in vivo [2]) was 12 mg/kg.
With `CCOC(=O)Nc1ccc2c(c1)N(C(=O)C(C)N)c1ccccc1CC2` (stereo not drawn) [compound 13] the ED73 (Aconitine (rat); iv, read-out: ED73 iv.) was 0.31 mg/kg, the ED73 (Aconitine (rat); po, read-out: ED73 p.o.) was 14 mg/kg and the selectivity ratio (in vivo [1]; [3]) was 45. It also gave a selectivity ratio (in vivo [1]; [4]) of 68 and an LD50 (in vivo [2]) of 21 mg/kg.
`COC(=O)Nc1ccc2c(c1)N(C(=O)C(C)NCCO)c1ccccc1CC2` (stereo not drawn) [compound 9] gave an ED73 (Aconitine (rat); iv, read-out: ED73 iv.) of 4 mg/kg, a selectivity ratio (in vivo [1]; [4]) of 14 and an LD50 (in vivo [2]) of 55 mg/kg.
With `Cc1cccc(C)c1OCC(C)N` (stereo not drawn) [Mexiletin, reference compound] the ED50 (Aconitine (rat); iv, read-out: ED50 iv. (printed in the ED73 p.o. column)) was 91 mg/kg and the ED73 (Aconitine (rat); iv, read-out: ED73 iv.) was 15 mg/kg.
`CCNC(C)C(=O)N1c2ccccc2CCc2ccc(NC(=O)OC(C)C)cc21` (stereo not drawn) [compound 7] gave an ED73 (Aconitine (rat); iv, read-out: ED73 iv.) of 0.33 mg/kg, an ED73 (Aconitine (rat); po, read-out: ED73 p.o.) of 20 mg/kg and a selectivity ratio (in vivo [1]; [3]) of 61. For the same molecule, the selectivity ratio (in vivo [1]; [4]) was 30 and the LD50 (in vivo [2]) was 10 mg/kg.
With `CNC(C)C(=O)N1c2ccccc2CCc2ccc(NC(=O)OC)cc21` (stereo not drawn) [compound 8] the ED73 (Aconitine (rat); iv, read-out: ED73 iv.) was 0.86 mg/kg, the ED73 (Aconitine (rat); po, read-out: ED73 p.o.) was 14 mg/kg and the selectivity ratio (in vivo [1]; [3]) was 16. It also gave a selectivity ratio (in vivo [1]; [4]) of 28 and an LD50 (in vivo [2]) of 24 mg/kg.
`CCOC(=O)Nc1ccc2c(c1)N(C(=O)C(C)NC)c1ccccc1C=C2` (stereo not drawn) [compound 10] gave an ED73 (Aconitine (rat); iv, read-out: ED73 iv.) of 0.75 mg/kg, an ED73 (Aconitine (rat); po, read-out: ED73 p.o.) of 4.9 mg/kg and a selectivity ratio (in vivo [1]; [3]) of 6.5. It also gave a selectivity ratio (in vivo [1]; [4]) of 19 and an LD50 (in vivo [2]) of 14 mg/kg.
Molecule `CCCNC(C)C(=O)N1c2ccccc2CCc2ccc(NC(=O)OCC)cc21` (stereo not drawn) [compound 12] has an ED73 (Aconitine (rat); iv, read-out: ED73 iv.) of 0.16 mg/kg, an ED73 (Aconitine (rat); po, read-out: ED73 p.o.) of 3.5 mg/kg and a selectivity ratio (in vivo [1]; [3]) of 22. It also gave a selectivity ratio (in vivo [1]; [4]) of 16 and an LD50 (in vivo [2]) of 2.5 mg/kg.
In the case of `CCOC(=O)Nc1ccc2c(c1)N(C(=O)C(C)N1CCOCC1)c1ccccc1CC2` (stereo not drawn) [Test No. 3], the ED73 (Aconitine (rat); iv, read-out: ED73 iv.) is reported as 47 mg/kg, the ED73 (Aconitine (rat); po, read-out: ED73 p.o.) is reported as greater than 80 mg/kg and the selectivity ratio (in vivo [1]; [4]) is reported as roughly 2. The LD50 (in vivo [2]) was greater than 70 mg/kg.
With `CCNC(C)C(=O)N1c2ccccc2C=Cc2ccc(NC(=O)OCC)cc21` (stereo not drawn) [compound 11] the ED73 (Aconitine (rat); iv, read-out: ED73 iv.) was 0.8 mg/kg, the ED73 (Aconitine (rat); po, read-out: ED73 p.o.) was 14 mg/kg and the selectivity ratio (in vivo [1]; [3]) was 18. It also gave a selectivity ratio (in vivo [1]; [4]) of 18 and an LD50 (in vivo [2]) of 14 mg/kg.
